Data on 1 compound can be found in patent US20240018129A1, “COMPOUNDS AS PU. 1 INHIBITORS” (PEKING UNIVERSITY, priority 2020, published 2024).

One assay deals with T1, PU.1 (Mus musculus, UniProt P17433).
T1 construct: EGFP (from 'PU.1-EGFP-vector'); expressed in transfected cells
Nature of the assay: q-PCR of TIM-3 expression in Blast-PU.1 cells (PU.1 inhibition potency). Format: cell-based. An excerpt: An acute T cell lymphoblastic leukemia (T-ALL) disease model was used to evaluate the effect of the newly synthesized compounds on PU.1 inhibition. Pten, a famous tumor suppressor gene, was […] deleted in mouse hematopoietic stem cells and their differentiated progeny, and this would eventually lead to a progressive T-ALL in about two months from born. It is believed that immune checkpoint T cell immunoglobulin mucin-3 (TIM-3), a surface marker for the isolation of pure leukemia-initiating cells (LICs), is transcriptionally regulated by transcription factor PU.1 in the Pten-null T-ALL model. Therefore, the expression level of TIM-3 was detected and quantified to characterize the inhibition potency of the compounds after 24 h treatment of graded concentrations of compounds. Blast cells were transfected with either PU.1-EGFP-vector or EGFP-vector to yield stable cell lines blast-PU.1 and blast-EGFP, respectively. These cell lines were used for compound testing in vitro. Compounds DB1976 and DB2115 were tested as well for comparison. Blast-PU.1 and blast-EGFP are the ideal cell lines for compounds testing in vitro, since they are T-ALL blast cells with […] TIM-3 and PU.1 expression level.

For assay [1], the system named is bleomycin-induced skin fibrosis. Briefly: bleomycin-induced skin fibrosis, preventive and therapeutic models. Format: in vivo, mouse. As to the method:
Methods: To evaluate the preventive and therapeutic effects of compound I-1 on skin fibrosis, bleomycin was used to establish two animal models of skin fibrosis with different drug intervention (6-8 weeks, C57BL/6, male). Skin fibrosis was induced by local injection of bleomycin (0.5 mg/mL, 0.1 ml/mouse) in a skin defined area (˜1 cm^2), where the hair was removed in advance, at the upper back every other day. Subcutaneous saline injections served as controls. (I) Preventive model of bleomycin-induced skin fibrosis: Compound I-1, positive control DB1976, or vehicle (saline) were injected i.p. simultaneously with bleomycin for 4 weeks (FIG. 3a). (II) Therapeutic model of bleomycin-induced skin fibrosis: Mice were pre-charged with bleomycin for 3 weeks to induce skin fibrosis, then treated with compound I-1, positive control DB1976, or vehicle (saline) for another 3 weeks, total time is 6 weeks after the first bleomycin treatment (FIG. 30. After the last day of treatment of both models, mice were fasted overnight and euthanized. Part of the skin was fixed with paraformaldehyde after fully flat on a foil, embedded with paraffin, and then sliced for H&E, Sirius red and Masson staining to check pathological features. The epidermal thickness of each sample was calculated quantitatively with image J. Another part of skin was collected and stored at −80° C. after liquid nitrogen quick-freezing, RNA isolation (Code.R6934, OMEGA, USA), first cDNA reverse (Code.AT341, TransGen, China), SYBR mix (Code.AQ601, TransGen, China) for Q-PCR (LightCycler® 96, Roche) to verify several fibrosis-related genes mRNA level, such as, Col1a1 and Col1a2.

The test system of assay [2] is CCl4-induced liver fibrosis. Briefly: CCl4 (higher dose)-induced liver fibrosis model. As to conditions: 5mpk or 10mpk i.p. once daily for 6 weeks. The format is in vivo, mouse. An excerpt: Methods: To evaluate the potential therapeutic effects of compound I-1 on liver disorders, including liver fat steatosis and accumulation, nonalcoholic fatty liver disease (NAFLD), nonalcoholic steatosis hepatitis (NASH), and liver fibrosis, three mice models (C57BL/6, male, 8 weeks old) were used. (I) NASH diet (Code.TD.160785, ENVIGO, USA)-induced NASH model: All mice were fed with NASH diet for 10 weeks. Mice were then randomly distributed into three groups, and each group was assigned to be injected daily with vehicle, compound I-1 (2.5mpk or 5mpk, i.p.), or DB1976 (2.5mpk, i.p, as a positive control) for another 6 weeks on continuous NASH diet. A group with normal regular diet was treated with vehicle as health control. (II) High-fat diet (HFD) combinate with CCl4 (lower dose)—induced NASH model. Mice were fed with normal regular diet or HFD (kcal fat 60%—D12492, research diets) for 10 weeks, then the HFD mice were divided into two groups randomly based on the rule of minimum weight differences. Each group was assigned to be injected with CCl4 (25% v/v in olive oil, 0.5 mL/kg body weight) or pure olive oil (i.p.) twice a week for 4 weeks. Compound 1-1 or vehicle (saline) were injected (i.p.) once daily for 4 weeks at the same time with CCl4 under continuous HFD. (III) CCl4 (higher dose)—induced liver fibrosis model. Liver fibrosis was induced by CCl4 injection (20% v/v in olive oil, 10 mL/kg body weight) twice a week for 6 weeks, compound I-1 or vehicle are also injected (i.p.) once daily for 6 weeks at the same time with CCl4 application. Ail the mice in the above-mentioned three models were observed daily. After the last day of treatment of all the models, mice were fasted overnight and euthanized. Serum was collected after centrifuging of the whole blood at 4 degrees, and blood biochemistry parameters were tested through automatic biochemical instrument (BS-240VET, Mindray). Part of liver tissues were fixed with paraformaldehyde, embedded with paraffin, and then sliced for H&E or Sirius red staining to check pathological features, and NAFLD scores. […]

Setting [3] is: preventive model, 5mpk i.p., 4 weeks.

Take `N=C(N)c1ccc2nc(-c3ccc(NC(=O)[C@@H]4CCCN4C(=O)[C@@H]4CCCN4C(=O)c4ccc(-c5nc6ccc(C(=N)N)cc6[nH]5)cc4)cc3)[nH]c2c1` [Compound I-1, (S)-1-((4-(6-carbamimidoyl-1H-benzo[d]imidazol-2-yl)benzoyl)-L-prolyl)-N-(4-(6-carbamimidoyl-1H-benzo[d]imidazol-2-yl)phenyl)pyrrolidine-2-carboxamide]: the “downregulated the expression level of TIM-3” value at PU.1 (10 nM, 24 h treatment, Blast-PU.1 cell line, q-PCR) was 40%. The “activity in terms of PU.1-mediated TIM-3 inhibition, compared among tested compounds” value on PU.1 (Blast-PU.1 cells) is recorded as “best activity”. The skin fibrosis progress result in assay [1] (preventive model, 5mpk i.p. simultaneously with bleomycin for 4 weeks, vs bleomycin/vehicle) is reported as “significantly prevented”. Also, in assay [1] (setting [3]), the collagen deposition entry is listed as “reducing” and the epidermal thickness entry is “reducing”. For the same compound, the “mRNA level of Col1a1 and Col1a2” value in assay [1] (preventive model, 5mpk i.p., 4 weeks, skin) was “decreasing”. Further, in assay [1] (therapeutic model, 3 weeks bleomycin then 3 weeks treatment, 5mpk), the bleomycin-induced skin fibrosis result was “significantly alleviated and reversed”. Also, in assay [2], the CCl4-induced liver fibrosis entry is “alleviated”; the “collagen deposition and Sirius red-positive area” value is listed as “significantly decreased”; the “inordinate mRNA level and blood biochemistry induced by CCl4 application” value is on record as “ameliorated”.
